In ChEMBL document CHEMBL1148587, “Imidazo[1,2-a]pyrimidines as functionally selective and orally bioavailable GABA(A)alpha2/alpha3 binding site agonists for the treatment of anxiety disorders” (J Med Chem, 2006):
pKi: −log10 of the molar value. Activity calls are given as the source filed them. No cut-off for these calls is given here.

How the values were obtained:
[1] = biological target: T1, GABA-A receptor; alpha-1/beta-3/gamma-2 (Homo sapiens, UniProt P14867+P18507+P28472); experiment: Displacement of [3H]-Ro15-1788 from human recombinant GABAA alpha1 in combination with beta-3-gamma-2 expressed in L(tk-) cells; type: cell-based
T1 sequence (P14867 whole entry): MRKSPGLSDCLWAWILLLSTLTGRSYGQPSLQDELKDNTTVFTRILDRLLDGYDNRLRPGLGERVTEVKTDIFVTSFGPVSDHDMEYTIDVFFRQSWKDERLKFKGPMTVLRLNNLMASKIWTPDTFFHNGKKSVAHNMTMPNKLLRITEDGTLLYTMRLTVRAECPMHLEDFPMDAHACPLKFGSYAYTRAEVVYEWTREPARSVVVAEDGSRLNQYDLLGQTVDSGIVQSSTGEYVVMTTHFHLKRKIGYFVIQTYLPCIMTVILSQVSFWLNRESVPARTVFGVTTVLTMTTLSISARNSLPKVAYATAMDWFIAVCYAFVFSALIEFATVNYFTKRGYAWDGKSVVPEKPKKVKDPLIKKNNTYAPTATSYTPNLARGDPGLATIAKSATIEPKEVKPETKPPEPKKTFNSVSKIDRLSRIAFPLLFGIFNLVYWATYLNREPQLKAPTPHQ
T1 sequence (P18507 whole entry): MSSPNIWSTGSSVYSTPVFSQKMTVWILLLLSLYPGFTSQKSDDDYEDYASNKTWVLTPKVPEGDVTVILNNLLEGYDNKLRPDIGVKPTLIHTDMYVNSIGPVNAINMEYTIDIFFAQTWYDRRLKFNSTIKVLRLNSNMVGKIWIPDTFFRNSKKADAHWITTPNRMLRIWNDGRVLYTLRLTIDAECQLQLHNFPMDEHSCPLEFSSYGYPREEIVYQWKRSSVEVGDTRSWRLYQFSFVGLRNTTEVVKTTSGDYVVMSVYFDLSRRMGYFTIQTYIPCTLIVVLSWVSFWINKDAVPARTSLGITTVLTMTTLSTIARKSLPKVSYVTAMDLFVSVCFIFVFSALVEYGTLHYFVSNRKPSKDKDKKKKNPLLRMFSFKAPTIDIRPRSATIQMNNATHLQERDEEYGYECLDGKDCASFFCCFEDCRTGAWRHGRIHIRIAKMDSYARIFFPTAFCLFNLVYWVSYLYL
T1 sequence (P28472 whole entry): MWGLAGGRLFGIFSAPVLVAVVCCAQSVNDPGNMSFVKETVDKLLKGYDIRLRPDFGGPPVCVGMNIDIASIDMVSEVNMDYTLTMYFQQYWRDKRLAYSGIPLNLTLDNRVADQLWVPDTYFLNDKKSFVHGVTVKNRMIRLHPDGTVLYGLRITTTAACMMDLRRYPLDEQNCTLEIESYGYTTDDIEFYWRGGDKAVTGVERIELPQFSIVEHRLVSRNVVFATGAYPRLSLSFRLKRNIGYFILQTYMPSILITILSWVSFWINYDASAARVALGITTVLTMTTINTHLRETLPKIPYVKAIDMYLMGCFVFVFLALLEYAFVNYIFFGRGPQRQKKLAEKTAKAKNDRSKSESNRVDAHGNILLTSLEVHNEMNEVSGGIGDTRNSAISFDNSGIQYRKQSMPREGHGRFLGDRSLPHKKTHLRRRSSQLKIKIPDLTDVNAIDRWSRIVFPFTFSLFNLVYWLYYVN

[2] = biological target: T2, GABA-A receptor; alpha-2/beta-3/gamma-2 (Homo sapiens, UniProt P18507+P28472+P47869); experiment: Displacement of [3H]-Ro15-1788 from human recombinant GABAA alpha2 in combination with beta3gamma2 expressed in L(tk-) cells; type: cell-based
T2 sequence (P18507 whole entry): T1 sequence (P18507 whole entry)
T2 sequence (P28472 whole entry): T1 sequence (P28472 whole entry)
T2 sequence (P47869 whole entry): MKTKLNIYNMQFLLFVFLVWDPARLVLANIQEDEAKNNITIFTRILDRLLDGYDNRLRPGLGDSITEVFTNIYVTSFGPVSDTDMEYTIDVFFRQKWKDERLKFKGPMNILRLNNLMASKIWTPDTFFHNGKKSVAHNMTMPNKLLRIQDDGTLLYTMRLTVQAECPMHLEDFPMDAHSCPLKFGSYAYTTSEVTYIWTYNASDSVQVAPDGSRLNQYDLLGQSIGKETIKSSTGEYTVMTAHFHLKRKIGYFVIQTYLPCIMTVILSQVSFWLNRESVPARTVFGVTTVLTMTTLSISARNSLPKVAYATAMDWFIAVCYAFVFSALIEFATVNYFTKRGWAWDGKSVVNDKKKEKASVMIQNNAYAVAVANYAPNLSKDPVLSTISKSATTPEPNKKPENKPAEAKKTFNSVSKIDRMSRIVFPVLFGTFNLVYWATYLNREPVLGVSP

[3] = biological target: T3, GABA-A receptor; alpha-3/beta-3/gamma-2 (Homo sapiens, UniProt P18507+P28472+P34903); experiment: Displacement of [3H]Ro-151788 from human recombinant GABAA alpha3 in combination with beta3gamma2 expressed in L(tk-) cells; type: cell-based
T3 sequence (P18507 whole entry): T1 sequence (P18507 whole entry)
T3 sequence (P28472 whole entry): T1 sequence (P28472 whole entry)
T3 sequence (P34903 whole entry): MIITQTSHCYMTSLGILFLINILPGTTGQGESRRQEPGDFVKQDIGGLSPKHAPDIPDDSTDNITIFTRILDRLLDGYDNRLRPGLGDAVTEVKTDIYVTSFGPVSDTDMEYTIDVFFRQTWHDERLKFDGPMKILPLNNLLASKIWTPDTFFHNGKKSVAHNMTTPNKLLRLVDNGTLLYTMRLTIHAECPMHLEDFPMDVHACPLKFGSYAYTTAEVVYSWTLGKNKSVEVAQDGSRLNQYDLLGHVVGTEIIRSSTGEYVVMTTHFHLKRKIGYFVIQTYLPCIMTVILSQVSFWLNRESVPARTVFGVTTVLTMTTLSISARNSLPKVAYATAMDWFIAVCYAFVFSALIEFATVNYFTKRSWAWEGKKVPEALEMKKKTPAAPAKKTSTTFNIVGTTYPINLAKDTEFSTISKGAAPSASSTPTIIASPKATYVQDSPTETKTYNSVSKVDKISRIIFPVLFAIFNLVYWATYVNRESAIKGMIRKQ

[4] = biological target: T4, GABA-A receptor; alpha-5/beta-3/gamma-2 (Homo sapiens, UniProt P18507+P28472+P31644); experiment: Displacement of [3H]Ro-151788 from human recombinant GABAA alpha5 in combination with beta3gamma2 expressed in L(tk-) cells; type: cell-based
T4 sequence (P18507 whole entry): T1 sequence (P18507 whole entry)
T4 sequence (P28472 whole entry): T1 sequence (P28472 whole entry)
T4 sequence (P31644 whole entry): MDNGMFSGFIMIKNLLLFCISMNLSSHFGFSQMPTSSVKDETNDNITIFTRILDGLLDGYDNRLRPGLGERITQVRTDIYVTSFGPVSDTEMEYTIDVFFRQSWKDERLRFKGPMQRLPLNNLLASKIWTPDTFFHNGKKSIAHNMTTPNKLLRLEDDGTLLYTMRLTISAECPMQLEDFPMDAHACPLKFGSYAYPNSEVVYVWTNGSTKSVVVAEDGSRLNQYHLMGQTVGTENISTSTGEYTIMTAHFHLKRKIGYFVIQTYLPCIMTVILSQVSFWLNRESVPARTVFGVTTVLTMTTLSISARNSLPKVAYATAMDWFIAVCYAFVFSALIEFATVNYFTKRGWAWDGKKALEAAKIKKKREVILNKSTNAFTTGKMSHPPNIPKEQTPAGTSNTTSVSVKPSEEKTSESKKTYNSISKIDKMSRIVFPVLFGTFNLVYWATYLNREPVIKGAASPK

[5] = biological target: T5, GABA-A receptor; alpha-1/beta-3/gamma-2 (Homo sapiens) (UniProt P14867+P18507+P28472); experiment: Efficacy against human recombinant GABAA alpha-1 in combination with beta3gamma2 expressed in L(tk-) cells by whole cell patch clamp method; type: functional, cell-based
[6] = biological target: T6, GABA-A receptor; alpha-3/beta-3/gamma-2 (Homo sapiens) (UniProt P18507+P28472+P34903); experiment: Efficacy against human recombinant GABAA alpha3 in combination with beta-3-gamma-2 expressed in L(tk-) cells by whole cell patch clamp method; type: functional, cell-based
[7] = biological target: GABA-A receptor; alpha-5/beta-3/gamma-2 (Homo sapiens) (UniProt P18507+P28472+P31644); experiment: Efficacy against human recombinant GABAA alpha5 in combination with beta3gamma2 expressed in L(tk-) cells by whole cell patch clamp method; type: functional, cell-based
[8] = Oral bioavailability in rat; type: ADME, organism-based; details: in vivo
[9] = Plasma clearance in rat; type: ADME, organism-based
[10] = Oral bioavailability in dog; type: ADME, organism-based, Canis lupus familiaris; details: in vivo
[11] = Plasma clearance in dog; type: ADME, organism-based, Canis lupus familiaris
[12] = biological target: T6, GABA-A receptor; alpha-3/beta-3/gamma-2 (Homo sapiens); experiment: Efficacy against human recombinant GABAA alpha3 in combination with beta-3-gamma-2 expressed in L(tk-) cells by 36Cl ion flux modulation; type: functional, cell-based
[13] = biological target: T5, GABA-A receptor; alpha-1/beta-3/gamma-2 (Homo sapiens); experiment: Efficacy against human recombinant GABAA alpha1 in combination with beta3gamma2 expressed in L(tk-) cells by 36Cl ion flux modulation; type: functional, cell-based
[14] = tested on: Rattus norvegicus; experiment: Activity in rat elevated plus maze assay at 5 mg/kg, ip; type: functional, organism-based; design: dose 5 mg/kg

Structure (SMILES) | pKi [1] | pKi [2] | pKi [3] | pKi [4] | Efficacy [5] | Efficacy [6] | Efficacy [7] | bioavailability [8] | clearance [9] | bioavailability [10] | clearance [11] | Efficacy [12] | Efficacy [13] | Activity [14]
CCO/N=C(\C)c1ccc2c(c1)ncn2-c1cccc(-c2cccnc2)c1 | 8.82 | 7.88 | 8.04 | 8.80 | 42% | 127% | 26% | – | – | – | – | – | – | –
Cn1cnc(COc2nn3c(-c4ccccc4)nnc3c3c2C2CCC3CC2)n1 | – | – | – | – | 34% | 55% | – | – | – | – | – | – | – | –
N#Cc1ccccc1-c1cc(-c2cnc3nc(C(F)(F)F)ccn23)ccc1F | 9.30 | 9.28 | 9.47 | 9.70 | 12.4% | 43% | 14% | – | – | – | – | – | – | –
Cc1ccn2c(-c3cccc(-c4ccccc4C#N)c3)cnc2n1 | 9.41 | 9.11 | 9.43 | 9.92 | 7% | 81% | 1% | 42% | 13 mL/min/kg | < 5% | 41 mL/min/kg | – | – | –
Cc1ccn2c(-c3cccc(-c4ccccc4C#N)c3)cnc2c1 | 8.35 | – | 8.44 | 8.92 | -10% | 57% | -14.6% | 2% | 44 mL/min/kg | – | – | – | – | –
CC(C)(O)c1ccn2c(-c3ccc(F)c(-c4ccc(F)cc4C#N)c3)cnc2n1 | 8.57 | 8.48 | 8.89 | 10.00 | – | – | – | – | – | – | – | 45% | 45% | –
N#Cc1cccc(F)c1-c1cc(-c2cnc3nc(C(F)(F)F)ccn23)ccc1F | 9.06 | – | 9.42 | 9.30 | 8% | 33% | – | – | – | – | – | – | – | –
N#Cc1ccc(F)cc1-c1cc(-c2cnc3nc(C(F)(F)F)ccn23)ccc1F | 9.19 | – | 9.21 | 9.59 | 34% | – | – | – | – | – | – | – | – | –
N#Cc1ccccc1-c1cc(F)cc(-c2cnc3nc(C(F)(F)F)ccn23)c1 | 8.28 | – | 7.85 | 8.80 | – | – | – | – | – | – | – | 18% | 4% | –
N#Cc1c(F)cccc1-c1cc(-c2cnc3nc(C(F)(F)F)ccn23)ccc1F | 8.34 | – | 8.12 | 8.55 | – | – | – | – | – | – | – | 56% | 31% | –
Cc1ccn2c(-c3cccc(-c4cccnc4)c3)cnc2c1 | – | – | 7.80 | – | – | – | – | – | – | – | – | 9% | -15% | –
CCn1ncnc1COc1nn2c(-c3ccccc3F)nnc2cc1C(C)(C)C [MK-0777] | 9.59 | 9.52 | 9.52 | 9.70 | – | – | – | – | – | – | – | – | – | –
Cn1ncnc1COc1nn2c(-c3cc(F)ccc3F)nnc2cc1C(C)(C)C | 9.10 | 9.15 | 9.15 | 8.64 | 2% | 43% | 39% | – | – | – | – | – | – | –
N#Cc1ccccc1-c1cccc(-c2cnc3nc(C(F)(F)F)ccn23)c1F | 8.57 | – | 8.59 | 9.03 | 2% | 43% | 18% | – | – | – | – | – | – | –
c1ccc(-c2nnc3c4c(c(OCc5ccccn5)nn23)C2CCC4CC2)cc1 | 7.25 | 7.66 | 8.00 | 9.00 | 32% | 45.6% | – | – | – | – | – | – | – | –
CNC1=Nc2ccc(Cl)cc2C(c2ccccc2)=[N+]([O-])C1 | – | – | – | – | – | – | – | – | – | – | – | – | – | Active
N#Cc1ccccc1-c1cccc(-c2cnc3nc(C(F)(F)F)ccn23)c1 | 9.18 | – | 9.48 | 9.68 | 20% | 69% | – | – | – | – | – | – | – | –
